Tested on: SEM cells
Test: cell viability relative to DMSO control; higher = less cytotoxic
Conditions: 48 h
How it was run: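 Library compounds in DMSO were pin-dosed in an 11-point threefold series (47 μM to 0.79 nM) onto leukemia cells in 1536-well plates (5 μl). Plates held 500 cells/well of NOMO1 or SEM or 1000 cells/well of P12-Ichikawa, each adapted for at least four passages in each medium. Luminescence was read with CellTiter-Glo One after 48 h at 37°C. Viability means the per-plate percentage relative to DMSO wells, using cell-free wells as background.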

[1] = HPLM + 10% dialyzed FBS, 0.000781 µM
[2] = HPLM + 10% dialyzed FBS, 0.00234 µM
[3] = HPLM + 10% dialyzed FBS, 0.00702 µM
[4] = HPLM + 10% dialyzed FBS, 0.0211 µM
[5] = HPLM + 10% dialyzed FBS, 0.0632 µM
[6] = HPLM + 10% dialyzed FBS, 0.19 µM
[7] = HPLM + 10% dialyzed FBS, 0.569 µM
[8] = HPLM + 10% dialyzed FBS, 1.71 µM
[9] = HPLM + 10% dialyzed FBS, 5.12 µM
[10] = HPLM + 10% dialyzed FBS, 15.4 µM
[11] = HPLM + 10% dialyzed FBS, 46.1 µM
[12] = RPMI 5 mM glucose + 10% FBS, 0.000781 µM
[13] = RPMI 5 mM glucose + 10% FBS, 0.00234 µM
[14] = RPMI 5 mM glucose + 10% FBS, 0.00702 µM
[15] = RPMI 5 mM glucose + 10% FBS, 0.0211 µM
[16] = RPMI 5 mM glucose + 10% FBS, 0.0632 µM
[17] = RPMI 5 mM glucose + 10% FBS, 0.19 µM
[18] = RPMI 5 mM glucose + 10% FBS, 0.569 µM
[19] = RPMI 5 mM glucose + 10% FBS, 1.71 µM
[20] = RPMI 5 mM glucose + 10% FBS, 5.12 µM
[21] = RPMI 5 mM glucose + 10% FBS, 15.4 µM
[22] = RPMI 5 mM glucose + 10% FBS, 46.1 µM
[23] = RPMI 5 mM glucose + 10% dialyzed FBS, 0.000781 µM
[24] = RPMI 5 mM glucose + 10% dialyzed FBS, 0.00234 µM
[25] = RPMI 5 mM glucose + 10% dialyzed FBS, 0.00702 µM
[26] = RPMI 5 mM glucose + 10% dialyzed FBS, 0.0211 µM
[27] = RPMI 5 mM glucose + 10% dialyzed FBS, 0.0632 µM
[28] = RPMI 5 mM glucose + 10% dialyzed FBS, 0.19 µM
[29] = RPMI 5 mM glucose + 10% dialyzed FBS, 0.569 µM
[30] = RPMI 5 mM glucose + 10% dialyzed FBS, 1.71 µM
[31] = RPMI 5 mM glucose + 10% dialyzed FBS, 5.12 µM
[32] = RPMI 5 mM glucose + 10% dialyzed FBS, 15.4 µM
[33] = RPMI 5 mM glucose + 10% dialyzed FBS, 46.1 µM

Compound	cell viability [1]	cell viability [2]	cell viability [3]	cell viability [4]	cell viability [5]	cell viability [6]	cell viability [7]	cell viability [8]	cell viability [9]	cell viability [10]	cell viability [11]	cell viability [12]	cell viability [13]	cell viability [14]	cell viability [15]	cell viability [16]	cell viability [17]	cell viability [18]	cell viability [19]	cell viability [20]	cell viability [21]	cell viability [22]	cell viability [23]	cell viability [24]	cell viability [25]	cell viability [26]	cell viability [27]	cell viability [28]	cell viability [29]	cell viability [30]	cell viability [31]	cell viability [32]	cell viability [33]
COc1ccc(C2Sc3ccccc3N(CCN(C)C)C(=O)C2OC(C)=O)cc1 (stereo not drawn)	99.2%	111%	106%	115%	113%	117%	115%	112%	106%	112%	108%	113%	109%	86%	99.4%	103%	111%	111%	105%	99.2%	110%	69%	87.2%	112%	99.6%	101%	107%	115%	107%	109%	124%	95.5%	85.8%
CC[C@H](NC(=O)[C@H](C)NC)C(=O)N1C[C@@H](O)C[C@H]1Cc1c(-c2[nH]c3cc(F)ccc3c2C[C@@H]2C[C@H](O)CN2C(=O)[C@H](CC)NC(=O)[C@H](C)NC)[nH]c2cc(F)ccc12	90.7%	122%	116%	116%	136%	134%	129%	134%	112%	119%	88.2%	–	–	–	–	–	–	–	–	–	–	–	–	–	–	–	–	–	–	–	–	–	–
O=C(O)CCn1c2c(c3ccccc31)C[C@H](N[S+](=O)([O-])c1ccc(F)cc1)CC2	112%	115%	112%	110%	111%	106%	96.8%	126%	118%	107%	104%	120%	102%	118%	109%	122%	108%	86.7%	117%	104%	107%	96.4%	112%	119%	119%	123%	122%	120%	90.6%	106%	128%	120%	124%
CN(C)CC[C@H](c1ccc(Cl)cc1)c1ccccn1	70.8%	72.6%	79.4%	78.8%	86.1%	73.7%	82.2%	75.2%	89.5%	83.8%	72.3%	80.6%	74.3%	91%	92.4%	88.6%	95.3%	100%	87.2%	101%	92.7%	101%	78.9%	83.4%	82.4%	86%	87.1%	95.4%	80.5%	87.3%	104%	93.2%	75.1%
COc1cc([C@H]2Oc3cc([C@H]4Oc5cc(O)cc(O)c5C(=O)[C@@H]4O)ccc3O[C@@H]2CO)ccc1O	63.6%	105%	109%	112%	117%	121%	121%	105%	110%	98.6%	92.7%	101%	118%	117%	116%	121%	118%	104%	120%	123%	120%	108%	93.5%	114%	124%	124%	133%	126%	124%	132%	118%	120%	112%
